According to patent publication US9113629B2, “4-amino-6-(4-substituted-phenyl)-picolinates and 6-amino-2-(4-substituted-phenyl)-pyrimidine-4-carboxylates and their use as herbicides” (DOW AGROSCIENCES LLC, priority 2013, dated 2015):
Like-named read-outs stand apart in the source and are kept apart here.

Tests used:
LAMSS = test: Post-emergent Test III, herbicidal activity in wheat and barley; format: in vivo; settings: Table 8, 21 d; for GR50 LAMSS: dose for 50 percent growth reduction; for GR50 LAMSS / GR80 LAMSS: probit analysis; for GR80 LAMSS: dose for 80 percent growth reduction; for pest or weed control at 35 g/ha: 35 g ai/ha; for pest or weed control at 70 g/ha: 70 g ai/ha
Summary of the method: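 GR20, GR50, GR80 and GR90 come from probit analysis of visual injury scores (0 = none, 100 = complete kill) taken 21 d after treatment. Foliar application was by track sprayer delivering 187 L/ha at five rates, from high down to 1/16×, onto greenhouse plants at the 2–3 leaf stage, with solvent-blank controls.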

[1] = tested on: test plant species in Direct Seeded Rice; test: Postemergence herbicidal activity in direct seeded rice (Table 13); format: in vivo; settings: for GR50 BRAPP / GR80 BRAPP / GR50 CYPSS / GR80 CYPSS / GR50 ECHSS / GR80 ECHSS / GR50 LEFSS / GR80 LEFSS / GR20 ORYSS / GR50 SCPJU / GR80 SCPJU / GR50 SEBEX / GR80 SEBEX: probit analysis; for GR20 ORYSS: ORYSS: Oryza sativa (crop); for pest or weed control at 35 g/ha / pest or weed control at 70 g/ha: post-emergence, 504 h; for pest or weed control at 35 g/ha: 35 g ai/ha; for pest or weed control at 70 g/ha: 70 g ai/ha
Excerpt: Seeds or nutlets of the desired test plant species were planted in a soil matrix prepared by mixing a loam soil (43 percent silt, 19 percent clay, and 38 percent sand, with a pH of about 8.1 and an organic matter content of about 1.5 percent) and river sand in an 80 to 20 ratio. The soil matrix was contained in plastic pots with a surface area of 139.7 cm^2. When required to ensure good germination and healthy plants, a fungicide treatment and/or other chemical or physical treatment was applied. The plants were grown for 10-17 d in a greenhouse with an approximate 14-h photoperiod which was maintained at about 29° C. during the day and 26° C. during the night. Nutrients and water were added on a regular basis and supplemental lighting was provided with overhead metal halide 1000-Watt lamps as necessary. The plants were employed for testing when they reached the second or third true leaf stage. A weighed amount, determined by the highest rate to be tested, of each test compound was placed in 25 mL glass vials and dissolved in a volume of 97:3 v/v acetone-DMSO to obtain 12× stock solutions. […] The concentrated stock solutions were added to the spray solutions so that the final acetone and DMSO concentrations were 16.2% and 0.5%, respectively. Spray solutions were diluted to the appropriate final concentrations with the addition of 10 mL of an aqueous mixture of 1.5% (v/v) Agri-dex crop oil concentrate. […] Compound requirements are based upon a 12 mL application volume at a rate of 187 L/ha. Formulated compounds were applied to the plant material with an overhead Mandel track sprayer equipped with […] nozzles calibrated to deliver 187 L/ha over an application area of 0.503 square meters (m^2) at a spray height of 18 inches (43 cm) above average plant canopy height. Control plants were sprayed in the same manner with the solvent blank. The treated plants and control plants were placed in a greenhouse as described above and watered by sub-irrigation to prevent wash-off of the test compounds. After 20-22 days, the condition of the test plants, compared with that of the untreated plants, was determined visually and scored on a scale of 0 to 100 percent where 0 corresponds to no injury and 100 corresponds to complete kill. By applying the well-accepted probit analysis as described by J. Berkson in Journal of the American Statistical Society, 48, 565 (1953) and by D. Finney in “Probit Analysis” Cambridge University Press (1952), the above data can be used to calculate GR20, GR50, GR80 and GR90 values, which are defined as growth reduction factors that correspond to the effective dose of herbicide required to kill or control 20 percent, 50 percent, 80 percent or 90 percent, respectively, of a target plant.

[2] = post-emergence, 504 h, post-emergent, read-out: Visual Growth Reduction (%) 21 Days After Application LAMSS
[3] = BRAPP: broadleaf signalgrass, Brachiaria platyphylla
[4] = CYPSS: sedge (Cyperus difformis, esculentus, iria)
[5] = ECHSS: barnyardgrass (Echinochloa crus-galli), junglerice (Echinochloa colonum)
[6] = LEFSS: sprangletop (Leptochloa chinensis, Leptochloa dubia)
[7] = SCPJU: Japanese bulrush, Scirpus juncoides
[8] = SEBEX: hemp sesbania, Sesbania exaltata
[9] = BRAPP: broadleaf signalgrass, Brachiaria platyphylla, read-out: Visual Growth Reduction (%) 21 Days After Application BRAPP
[10] = CYPSS: sedge (Cyperus difformis, esculentus, iria), read-out: Visual Growth Reduction (%) 21 Days After Application CYPSS
[11] = ECHSS: barnyardgrass (Echinochloa crus-galli), junglerice (Echinochloa colonum), read-out: Visual Growth Reduction (%) 21 Days After Application ECHSS
[12] = LEFSS: sprangletop (Leptochloa chinensis, Leptochloa dubia), read-out: Visual Growth Reduction (%) 21 Days After Application LEFSS
[13] = ORYSS: Oryza sativa, read-out: Visual Growth Reduction (%) 21 Days After Application ORYSS
[14] = SCPJU: Japanese bulrush, Scirpus juncoides, read-out: Visual Growth Reduction (%) 21 Days After Application SCPJU
[15] = SEBEX: hemp sesbania, Sesbania exaltata, read-out: Visual Growth Reduction (%) 21 Days After Application SEBEX

Compound	GR50 LAMSS (LAMSS)	GR80 LAMSS (LAMSS)	pest or weed control at 35 g/ha (LAMSS; [2])	pest or weed control at 70 g/ha (LAMSS; [2])	GR50 BRAPP [1, 3]	GR80 BRAPP [1, 3]	GR50 CYPSS [1, 4]	GR80 CYPSS [1, 4]	GR50 ECHSS [1, 5]	GR80 ECHSS [1, 5]	GR50 LEFSS [1, 6]	GR80 LEFSS [1, 6]	GR20 ORYSS [1]	GR50 SCPJU [1, 7]	GR80 SCPJU [1, 7]	GR50 SEBEX [1, 8]	GR80 SEBEX [1, 8]	pest or weed control at 35 g/ha [1, 9]	pest or weed control at 70 g/ha [1, 9]	pest or weed control at 35 g/ha [1, 10]	also measured
COC(=O)c1nc(-c2ccc(C#N)c(F)c2)c(F)c(N)c1Cl [Compound 135, methyl 4-amino-3-chloro-6-(4-cyano-3-fluorophenyl)-5-fluoropicolinate]	1 g ai/ha	19 g ai/ha	75 to 84%	85 to 94%	4 g ai/ha	11 g ai/ha	5 g ai/ha	49 g ai/ha	17 g ai/ha	70 g ai/ha	57 g ai/ha	114 g ai/ha	>70 g ai/ha	2 g ai/ha	5 g ai/ha	1 g ai/ha	1 g ai/ha	85 to 94%	85 to 94%	75 to 84%	pest or weed control at 140 g/ha (LAMSS; post-emergence, 504 h, 140 g ai/ha, post-emergent, read-out: Visual Growth Reduction (%) 21 Days After Application LAMSS): 85 to 94%; pest or weed control at 70 g/ha [1, 10]: 85 to 94%; pest or weed control at 35 g/ha [1, 11]: 75 to 84%; pest or weed control at 70 g/ha [1, 11]: 75 to 84%; pest or weed control at 35 g/ha [1, 12]: 0 to 29%; pest or weed control at 70 g/ha [1, 12]: 60 to 74%; pest or weed control at 35 g/ha [1, 13]: 0 to 29%; pest or weed control at 70 g/ha [1, 13]: 0 to 29%; pest or weed control at 35 g/ha [1, 14]: 85 to 94%; pest or weed control at 70 g/ha [1, 14]: 95 to 100%; pest or weed control at 35 g/ha [1, 15]: 95 to 100%; pest or weed control at 70 g/ha [1, 15]: 95 to 100%
Nc1cc(-c2ccc(I)cc2F)nc(C(=O)O)c1Cl [Compound 124]	1 g ai/ha	1 g ai/ha	95 to 100%	95 to 100%	4 g ai/ha	8 g ai/ha	1 g ai/ha	1 g ai/ha	2 g ai/ha	6 g ai/ha	7 g ai/ha	16 g ai/ha	1 g ai/ha	1 g ai/ha	1 g ai/ha	1 g ai/ha	1 g ai/ha	95 to 100%	95 to 100%	95 to 100%	pest or weed control at 70 g/ha [1, 10]: 95 to 100%; pest or weed control at 35 g/ha [1, 11]: 95 to 100%; pest or weed control at 70 g/ha [1, 11]: 95 to 100%; pest or weed control at 35 g/ha [1, 12]: 95 to 100%; pest or weed control at 70 g/ha [1, 12]: 95 to 100%; pest or weed control at 35 g/ha [1, 13]: 60 to 74%; pest or weed control at 70 g/ha [1, 13]: 85 to 94%; pest or weed control at 35 g/ha [1, 14]: 95 to 100%; pest or weed control at 70 g/ha [1, 14]: 95 to 100%; pest or weed control at 35 g/ha [1, 15]: 95 to 100%; pest or weed control at 70 g/ha [1, 15]: 95 to 100%
